The record followed here is patent US12435056B2, “N-lipoic-amino acid or peptide, derivatives and their uses” (NEOSTRATA COMPANY, INC., priority 2016, dated 2025).

Each structure is given as a SMILES string. Entries after “also recorded” stand apart in the source; their conditions may differ.

Data set [1] concerns MelanoDerm keratinocyte-melanocyte co-cultures. Description: MelanoDerm study: melanin content and skin lightening in 3D keratinocyte-melanocyte co-cultures. Conditions: for decrease of melanin content compared to control: darkly pigmented MelanoDerm. It counts as cell-based, human. The protocol:
(§1) MelanoDerms are co-culture models of keratinocytes and melanocytes and were used to test the ability of L20 as an anti-melanogenic compound. MelanoDerms were derived from a normal adult with darkly pigmented skin. These tissues were treated for two weeks on consecutive days with different doses of L20. One set of cultures were used for regression study, where it was taken off L20 after a week of treatment. Two weeks after treatment, the tissues were tested for melanin content and cell viability (FIG. 2a). […] The melanin content was assayed using a melanin standard curve.
(§2) MelanoDerm Study: MelanoDerms study was performed as per company instructions (Mattek, Ashland, MA). MelanoDerm tissues were derived from darkly pigmented skin type. The tissues were stabilized for 24 h and then treated with different doses of L20 (25 ul) in WEP modified vehicle. The MelanoDerms were treated for 2 weeks on consecutive days. Microscopic images were taken every other day. After two weeks, MTT assay was performed using Cell Titer 96® Aqueous One Solution and melanin content was assayed as mentioned in the protocol.

Data set [2] has as its system normal human epidermal melanocytes. As to the kind of experiment: Cell viability / L20 toxicity assay (Cell Titer 96 Aqueous One Solution). The class given is cell-based. On the procedure:
(§3) L20 is a glycinamide derivative of lipoic acid and was treated on normal human epidermal melanocytes at different doses for 48 h. Doses more than 0.05% L20 appeared to have moderate toxicity (FIG. 1a). We determined the ability of L20 to inhibit melanin synthesis in melanocyte cultures. L20 was used at a non-toxic dose of 0.001% for 7 days (FIG. 1b), their treatment was carried on consecutive days. After a week of treatment, the melanin was extracted and quantified using a melanin standard curve.
Cell culture: Normal human epidermal melanocytes (Lonza, Walkersville, MA) were grown in special melanocyte media MGM4 with supplements (Lonza, Walkersville, MA). Cells were plated and treated with different doses of L20 for 48 h. L20 was initially dissolved in DMSO (100%) and serial dilution were made in media. The stock was diluted a 1000 fold, to have less than […] DMSO in final solution. Microscopic images were taken using 10× magnification. Normal human dermal fibroblasts (Lonza, Walkersville, MA) were grown in special fibroblast growth media (Lonza, Walkersville, MA). […] To test cell viability, Cell Titer 96® Aqueous One Solution Cell Proliferation Assay was used and absorbance was measured colorimetrically at 490 nm using Tecan microplate reader.

The subject of data set [3] is normal neonatal human epidermal melanocytes. Description: Melanin reduction assay in melanocyte cultures. It counts as cell-based. The protocol: as §3
Melanin Reduction assay: Normal human epidermal melanocytes were treated with control or L20 for 7 days, and L20 was replaced on consecutive days. Cells were collected on the 7th day and maintained in Solvable (Perkin Elmer, Akron, OH) overnight at 65 degrees overnight. In parallel, melanin (Sigma, St. Louis, MO) standards were made in Solvable and treated similarly to the samples. Melanin content was then quantified colorimetrically using a Tecan microplate reader at 490 nm.

Data set [4] relates to MelanoDerm keratinocyte-melanocyte co-cultures. As to the kind of experiment: MelanoDerm survival (MTT assay). It counts as cell-based, human. Conditions: L20 0.5%, two weeks. On the procedure:
as §1, §2

Data set [5] concerns procollagen in EpiDerm-FT fibroblast-keratinocyte co-cultures. As to the kind of experiment: Procollagen ELISA in EpiDerm-FT tissue. Conditions: L20 1% in WEP vehicle, 48 h, p<0.02, FIG. 3. It counts as cell-based, human. The protocol:
Dermal fibroblast plays an important role in photo-aging and skin homeostasis. We determined if L20 had any anti-aging benefit using dermal fibroblasts. Normal human EpiDerm-FT tissue was used in the study. The Epiderm-FT consists of a fully differentiated epidermal and dermal skin layers. It also has 10-15 layers of stratum corneum and also basal, spinous and granular layers. The tissues were treated with vehicle control and L20 (1%), for 48 h. The tissues were used to measure the expression of procollagen using ELISA assay. The levels of procollagen were normalized to total protein.
L20 was prepared as 1% solution in WEP vehicle consisting of water, ethanol and propylene glycol at native pH. […] The tissue samples were digested using cell lysis buffer and the expression levels of procollagen protein were determined. Procollagen was quantified using standard ELISA technique (Takara Bio Inc.).
Epiderm Study: Epiderm-FT (Mattek, Ashland, MA) was used for the study, derived from neonatal foreskin. […] The cell lysate was analyzed for procollagen using ELISA (Takara, Shiga, Japan) as per instructions and normalized to total protein.
On the technique in general: An ELISA detects its analyte on a solid surface through an enzyme-linked reagent.

Regarding `O=c1cc(CO)occ1O` [Kojic Acid, reference compound], in data set [1] (positive control, dose not given, two weeks, MelanoDerm), the “decrease of melanin content” value is given as 27%.
In the case of `NC(=O)CNC(=O)CCCCC1CCSS1` (centres unmarked) [L20, N-lipoic glycinamide], the “non-toxic dose in L20 toxicity assay” value in data set [2] (different doses, absorbance at 490 nm) is recorded as not above 0.001%. Besides, the “doses with moderate toxicity” value in data set [2] (human, 48 h) is given as “more than 0.05%”. Also, the “melanin extracted and quantified from melanocyte cultures” value in data set [3] (L20 0.001%, 7 days, versus untreated and DMSO control, FIG. 1c) is given as “no detectable melanin; also recorded: did not have any measureable melanin”. The “melanin synthesis” value was “significantly blocks melanin synthesis” in data set [3] (normal neonatal human epidermal melanocytes, FIGS. 1a-c) and “significantly blocks melanin synthesis” in data set [1] (normal adult human Melanoderm 3D co-cultures, FIGS. 2a-d). Also, the “visual skin-lightening effect on melanoderms” value in data set [1] (0.5% and 1%, two weeks, FIG. 2b) is “significant skin-lightening effect”. In addition, the “regression study: reversibility of melanin inhibition after removal of L20” value in data set [1] (0.5% dose group, taken off L20 after one week of treatment) was “reversible inhibition of melanin synthesis”. The “microscopic observation of melanin” value in data set [1] (24 h after the initial treatment) is reported as “decreased melanin; also recorded: inhibited melanin synthesis”. The “decrease of melanin content compared to control” value in data set [1] (L20 0.1%, two weeks) was 44%; in data set [1] (L20 0.5%, two weeks) it was 56%; in data set [1] (L20 1%, two weeks) it was 60%. Moreover, the “toxicity in MelanoDerm (cell viability)” value in data set [4] was “non-toxic”. Also, the “procollagen production versus vehicle control, normalized to total protein” value in data set [5] is given as “significantly increased; also recorded: significantly induces procollagen synthesis; also recorded: induced pro-collagen”.
